Reference: article PMC9563500, “Effect of Coffee on the Bioavailability of Sterols” (Foods, 2022)
Read-outs that look alike come from different tables or passages of the source. Blank lines part the entries; values can stand above or below the compound they belong to.

Legend:
[1] = Absorptive (apical to basolateral) DHE permeability assay through Caco-2 monolayers; format: in vitro ADME, human; details: human, Caco-2, pH 7.4, GCA 10 mM, absence of coffee, 6 h, read-out: DHE apparent permeability coefficient (Papp)
Protocol: (§1) For transport experiments, the Caco-2 monolayers were prepared by seeding the cells at a density of 2.6 × 10^5 cells/cm^2 on 12-well polycarbonate Transwell^TM plates, following protocols previously defined for this assay. The cells were cultured until monolayer differentiation, for a total of 24 days, with culture medium being renewed every two days. On the day of the experiment, the culture medium was removed and replaced by HBSS medium pre-warmed at 37 °C (0.5 mL in the apical and 1.5 mL in the basolateral sides). The cell monolayers were placed in an incubator at 37 °C with a plate orbital shaker (IKA-Schüttler MTS4) at 50 rpm for 8 min. After two washing steps, the transepithelial electrical resistance (TEER) values were measured using a Millicell® ERS-2 voltmeter (Merck). The net TEER values (Ω cm^2) were obtained by subtracting the cell-free filter resistance and multiplying by filter area. All cell monolayers achieved TEER values exceeding 700 Ω cm^2 and were considered adequate for transport experiments.
(§2) In assessing the influence of coffees samples on DHE absorption by intestinal epithelia, the transport was studied in the absorptive way; that is, in the apical (mimicking the intestinal lumen) to the basolateral (mimicking the bloodstream) direction. The solutions of DHE to be applied in the apical side were prepared as follows: first, the lyophilized coffee extracts (16-fold diluted) were dissolved with GCA (10 mM) solution in HBSS. Then, the mixtures were allowed to equilibrated overnight in a 37 °C in a water bath with shaking at 100 rpm. On the day of the experiment, DHE was added to the coffee/GCA mixture or to GCA only (Control) as an aliquot from a DMSO stock of 10 mM DHE. Addition was performed under vigorous vortex mixing to facilitate DHE interaction with the GCA micelles and prevent its precipitation. The final DHE concentration ranged from 10 to 100 μM, corresponding to ≤1% (v/v) DMSO. To allow evaluation of the cell monolayer integrity in each permeability assay, the paracellular marker Lucifer Yellow (LY) was also added to the final mixtures at a concentration of 20 μM. The solutions were maintained at 37 °C until application in the permeability assay, and where optically clear.
(§3) It was therefore necessary to guarantee that the composition of the acceptor compartment in the permeability assay has an adequate ability to solubilize the sterol and allow its quantification. To approach the in vivo conditions in absorptive cholesterol transport, the acceptor compartment contained serum albumin at 100 µM, which corresponds to the concentration usually found in interstitial tissues. Serum albumin binds the cholesterol analog DHE with low to moderate affinity, KB = 5 × 10^4 [37], and at the concentration used DHE solubility is increased by at least an order of magnitude. To decrease the adsorption of DHE to the plate well and to the basolateral membrane, the transport media added to the basolateral side contained additionally 1% (v/v) DMSO. The presence of BSA and DMSO lead to improved sink conditions and higher DHE recoveries. The solutions from the acceptor compartments in the permeability assay where lyophilized directly in the wells of the permeability assay. A small amount of water was then added to facilitate detachment from the plate and solubilize salts and BSA. Ice-cold methanol was then added to dissolve DHE and precipitate the serum albumin. The DHE recovery efficiency when following this procedure was at least 90% (for details see Table S3 of the Supplementary Materials).
(§4) To start the absorptive transport experiments, the HBSS on the apical side was removed and replaced with 450 μL of the test solution (emulsified DHE + LY, emulsified DHE + coffee + LY or LY solutions). After addition of the test solution, 50 μL was collected (corresponding to a time delay of about 2 min) and the inserts were moved to a 12-well plate containing 1.2 mL of the basolateral transport medium. […]

Caco-2 monolayers [2] = experiment: as above; format: in vitro ADME, human
Protocol: as §1, §2, §3, §4

[3] = Solubility of DHE in GCA micelles (DHE fluorescence intensity); format: physicochemical; details: GCA 10 mM; Figure S6
Protocol: S5 – Solubility of DHE in GCA micelles
The solubility of DHE in the GCA micelles at the concentration of GCA used in the
permeability assays (10 mM) was characterized from variations in DHE fluoresc ence in-
tensity. The c once ntrati on of DHE was varied from 1 to 70 μM, with DHE bei ng ad ded to
the GCA solution by squirti ng a small v olume of a DHE solution i n DMSO (% DMSO < 1
%). The solutions obtai ned were optically clear and stable. However, the flu oresce nce in-
tensity measured in a right-angle geometry was not linearly dependent on the intensity
of light absorbed, Figure S6. This behaviour is in part due to geometr ical constraints due
to the right-angle detection, with a significant fluoresce nce being emitted but not detected.
present as small aggregates.
Figure S6. Dependence of DHE fluorescence intensity ex/em = 324/372 nm on the intensity of light
absorbed by DHE, when added to aqueous solutions containing 10 mM GCA. The hollow symbols
correspond to DHE concentrations equal to 1, 5 and 10 μM, and the filled symbols correspond to
DHE at 25, 50 and 70 μM. The line represents the best fit for the hollow symbols. […]

[4] = parameters: method as in PMID 4027244; details: aqueous media; cited from earlier work
[5] = parameters: method as in PMID 17766353; details: cited from earlier work
[6] = MTT cell viability assay (bile salts and coffee extracts); format: cell-based; details: human, Caco-2 cells, pH 7.4; for viability at 2 h: Figure S4 (incubation 2 h)
Protocol: The influence of bile salts and coffee extracts on the Caco-2 cells viability was assessed with the MTT assay for determination of mitochondrial activity in active cells. Briefly, the cells were seeded in 96-well plates at a density of 1 × 10^4 cells/well in 200 μL of medium. Cells were then maintained in culture until confluence, for 96 h with medium renewal after 3 days. Solutions of individual bile salts GCDCA, GDCA, GCA and the combination of all three were prepared in the transport buffer HBSS (containing 25 mM HEPES, 0.35 g/L sodium bicarbonate, pH 7.4) at several concentrations above their critical micellar concentration (CMC). Two-fold serial dilutions of individual coffee extracts or mixtures with the bile salts were prepared by diluting the lyophilized extracts in HBSS or HBSS plus bile salts. The following controls were also included: 20% (v/v) of dimethyl sulfoxide (DMSO) in HBSS (positive control) and only HBSS (negative control). The cells were incubated for 6 h with test samples or controls (200 μL). Then, the cells were washed with PBS and incubated with 150 μL of MTT diluted in medium (0.5 mg/mL) for 4 h at 37 °C. Finally, the medium was discarded, and the formazan crystals produced by active cells were solubilized with dimethyl sulfoxide (150 μL) for 15 min under continuous stirring. The absorbances were measured at 570 nm in a Synergy HT Microplate Reader (BioTek Instruments, Inc., Winooski, VT, USA). All conditions were performed in triplicate. Results are expressed as a percentage of cell viability relative to the negative control.

[7] = 50 mM bile salt concentration; cited from earlier work
[8] = parameters: method as in PMID 27079626, PMID 22569559; details: cited from earlier work
Caco-2 monolayers [9] = experiment: Lucifer Yellow paracellular permeability through Caco-2 monolayers (cell monolayer integrity); format: in vitro ADME, human
Protocol: as §1, §2
To start the absorptive transport experiments, the HBSS on the apical side was removed and replaced with 450 μL of the test solution (emulsified DHE + LY, emulsified DHE + coffee + LY or LY solutions). After addition of the test solution, 50 μL was collected (corresponding to a time delay of about 2 min) and the inserts were moved to a 12-well plate containing 1.2 mL of the basolateral transport medium. The plate was kept at 37 °C under stirring at 50 rpm for a total period of 6 h, with the assays being performed with either a single point sampling or three-points with 2 h sampling intervals. During the three-point sampling assay, 25 μL of the apical compartment was withdrawn at 2 and 4 h and replaced with fresh HBSS. At each time point indicated, the insert was also moved to another 12-well plate containing fresh basolateral medium (transfer sampling). At the end of the experiment (t6h), the inserts were transferred into empty wells and 50 μL were collected from the apical compartment and the remaining solution was decanted and stored. The 12-well plates with the samples of the basolateral compartments were frozen (−18 °C) and lyophilized. The same procedure was also applied to the aliquots of the apical side. All samples were then stored in a humidity-controlled environment until analysis.
The paracellular permeability of each cell monolayer was assessed by the quantification of LY transport from the apical and basolateral sides. For the samples from the apical side, aliquots of 50 μL were withdrawn at the beginning and end of the permeation experiment. The samples were diluted 30-fold and 100 µL were transferred to a 96-wells plate with clear bottom and black sides (Thermo Scientific Nunc). […]

[10] = average over Table 2 samples (DHE 10, 50 and 100 µM)
[11] = multi-time point assay, LY 20 µM alone or with DHE 10 µM emulsified by GCA 10 mM, without or with coffee extract (16-fold diluted), n = 2

Compound: CC(C)[C@@H](C)C=C[C@@H](C)[C@H]1CC[C@H]2C3=CC=C4C[C@@H](O)CC[C@]4(C)C3=CC[C@]12C [DHE, ergosta-5,7,9(11),22-tetraen-3β-ol]
- Papp at 6 h, 50 µM ([1]; 50 µM DHE): 0.0017 ×10⁻⁶ cm/s
- Papp at 6 h, 100 µM ([1]; 100 µM DHE): 0.026 ×10⁻⁶ cm/s
- DHE in the acceptor (basolateral) compartment (Caco-2 monolayers [2]; DHE 10 µM apical, transfer sampling at 2, 4 and 6 h, detection limit 1.6 pmol): not detected
- fraction of DHE that disappears from the apical transport media immediately after addition to the cell monolayers (Caco-2 monolayers [2]; DHE 10 µM, GCA 10 mM, about 2 min, control (no coffee) or with coffee brew diluted 16 times): 18.5 ± 3.9%
- additional decrease of DHE in suspension in the apical compartment (Caco-2 monolayers [2]; DHE 10 µM, GCA 10 mM, at 4 and 6 h incubation): about 2%
- amount of DHE extracted from the cells (Caco-2 monolayers [2]; end of permeability assay (6 h), DHE 10 µM, GCA 10 mM, control or with coffee brew): 16.3 ± 4.7%
- DHE emulsified by GCA [3]: up to 10 µM
- estimated critical aggregation concentration [4]: 25 nM
- characteristic rate constant for desorption from membranes ([5]; liquid disordered phase): 0.001 s⁻¹
- characteristic rate constant for desorption from membranes ([5]; liquid ordered phase): 6.9e-05 s⁻¹

Compound: C[C@H](CCC(=O)NCC(=O)O)[C@H]1CC[C@H]2[C@@H]3[C@H](O)C[C@@H]4C[C@H](O)CC[C@]4(C)[C@H]3C[C@H](O)[C@]12C [GCA, glycocholic acid]
- viability at 6 h, 15 mM ([6]; GCA 15 mM, 6 h exposure, relative to HBSS control): 80%
- viability at 2 h ([6]; GCA in HBSS at concentrations ≤12.5 mM): > 90%
- capacity to emulsify cholesterol [7]: 1.0 mM
- critical micelle concentration (CMC) [8]: 6.5 mM

Compound: CC(CCC(=O)NCC(=O)O)C1CCC2C3C(O)CC4CC(O)CCC4(C)C3CCC12C (stereo not drawn) [GCDCA, glycochenodeoxycholic acid]
- capacity to emulsify cholesterol [7]: 1.3 mM
- critical micelle concentration (CMC) [8]: 1.6 mM

Compound: CC(CCC(=O)NCC(=O)O)C1CCC2C3CCC4CC(O)CCC4(C)C3CC(O)C12C (stereo not drawn) [GDCA, glycodeoxycholic acid]
- viability at 2 h ([6]; GDCA in HBSS, all tested concentrations (1.56–50 mM)): < 10%
- capacity to emulsify cholesterol [7]: up to 3 mM
- critical micelle concentration (CMC) [8]: 1.7 mM

- Papp of LY, average value (Caco-2 monolayers [9]; [10]): 0.13 ×10⁻⁶ cm/s
- amount of LY transported over the 6 h incubation, average value (Caco-2 monolayers [9]; [10]): 0.8%
- Papp of LY (×10^−6) (Caco-2 monolayers [9]; multi-time point assay, last time interval of 2 h, LY alone or with DHE 10 µM/GCA 10 mM, without or with coffee extract, n = 2): 0.64 ×10^−6 cm/s
- % Transport of LY 0–2 h (Caco-2 monolayers [9]; [11]): 1.6%
- % Transport of LY 2–4 h (Caco-2 monolayers [9]; [11]): 0.9%
- % Transport of LY 4–6 h (Caco-2 monolayers [9]; [11]): 1.3%
- % Transport of LY 6 h (Caco-2 monolayers [9]; single time point 6 h, LY only): 1.6%
- Papp of LY (×10^−6) (Caco-2 monolayers [9]; single time point 6 h, LY only): 0.27 ×10^−6 cm/s
Compound: Lucifer yellow CH di-potassium salt [LY]
